Laboratory results: patent US20190085024A1, “Alpha-Ketoamide Inhibitors Of Cysteine Proteases” (Phelix Therapeutics, priority 2017, published 2019)

Assays:
Cathepsin L = Cathepsin L (Homo sapiens, UniProt P07711); assay: Cathepsin L enzyme assay; assay type: biochemical; details: Ki by Morrison equation; pH 5.5, substrate Z-Phe-Arg-Amc; read-out: Cat L
From the text: Two wells contained DMSO only for controls.
Velocity was converted to μM/sec.

Cathepsin B = Cathepsin B (Homo sapiens, UniProt P07858); assay: Cathepsin B enzyme assay; details: Cat B (μM), Ki by Morrison equation; pH 6.0, substrate Z-Phe-Arg-Amc
Calpain = Calpain enzyme assay; assay type: biochemical; details: Ki by Morrison equation; pH 7.5, 5 mM CaCl2

Chain of Cathepsin L (P07711 114-333, species assumed): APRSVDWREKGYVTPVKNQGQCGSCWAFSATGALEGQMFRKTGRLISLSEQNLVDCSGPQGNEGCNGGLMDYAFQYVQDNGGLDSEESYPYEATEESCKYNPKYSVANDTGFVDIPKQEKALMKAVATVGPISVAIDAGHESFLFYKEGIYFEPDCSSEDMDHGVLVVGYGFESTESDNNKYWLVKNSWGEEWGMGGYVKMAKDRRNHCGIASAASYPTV

Ki (Cathepsin L) [µM] | Ki (Cathepsin B) [µM] | Ki (Calpain) [µM] | Structure (SMILES)
0.141 | 0.439 | – | CC(NC(=O)C(Cc1ccccc1)NC(=O)Cc1ccccc1)C(=O)C(=O)NC(Cc1ccc2ccccc2c1)C(=O)NC(C)(C)C(=O)O (stereo not shown) [PHELIX158, 12-benzyl-2,2,9-trimethyl-5-(naphthalen-2-ylmethyl)-4,7,8,11,14-pentaoxo-15-phenyl-3,6,10,13-tetraazapentadecanoic acid]
2.6 | 0.273 | – | CCC(C)C(NC(=O)C(=O)C(C)NC(=O)C(Cc1ccc(C(C)(C)C)cc1)NC(=O)Cc1ccccc1)C(=O)NC(C)(C)C(=O)O (stereo not shown) [PHELIX167, 5-(sec-butyl)-12-(4-(tert-butyl)benzyl)-2,2,9-trimethyl-4,7,8,11,14-pentaoxo-15-phenyl-3,6,10,13-tetraazapentadecanoic acid]
0.402 | 0.03 | – | CC(NC(=O)C(Cc1ccccc1)NC(=O)Cc1ccccc1)C(=O)C(=O)NC(Cc1cccc2ccccc12)C(=O)NC(C)(C)C(=O)O (stereo not shown) [PHELIX162, 12-benzyl-2,2,9-trimethyl-5-(naphthalen-1-ylmethyl)-4,7,8,11,14-pentaoxo-15-phenyl-3,6,10,13-tetraazapentadecanoic acid]
0.127 | 0.197 | – | CC(NC(=O)C(Cc1ccccc1)NC(=O)Cc1ccccc1)C(=O)C(=O)NC(Cc1ccc(C(C)(C)C)cc1)C(=O)NC(C)(C)C(=O)O [PHELIX180, (5S,12)S-12-benzyl-5-(4-(tert-butyl)benzyl)-2,2,9-trimethyl-4,7,8,11,14-pentaoxo-15-phenyl-3,6,10,13-tetraazapentadecanoic acid]
2.69 | 0.0378 | – | CCC(C)C(NC(=O)C(=O)C(C)NC(=O)C(Cc1cccc(C#N)c1)NC(=O)Cc1ccccc1)C(=O)NC(C)(C)C(=O)O (stereo not shown) [PHELIX176, 5-(sec-butyl)-12-(3-cyanobenzyl)-2,2,9-trimethyl-4,7,8,11,14-pentaoxo-15-phenyl-3,6,10,13-tetraazapentadecanoic acid]
0.52 | 0.0746 | – | CCC(C)C(NC(=O)C(=O)C(C)NC(=O)C(Cc1ccc(F)cc1)NC(=O)Cc1ccccc1)C(=O)NC(C)(C)C(=O)O (stereo not shown) [PHELIX172, 5-(sec-butyl)-12-(4-fluorobenzyl)-2,2,9-trimethyl-4,7,8,11,14-pentaoxo-15-phenyl-3,6,10,13-tetraazapentadecanoic acid]
0.0386 | 0.0067 | – | CC(NC(=O)C(Cc1ccccc1)NC(=O)Cc1ccccc1)C(=O)C(=O)N[C@@H](Cc1ccccc1)C(=O)N1CCC[C@H]1C(=O)O (stereo partly shown) [PHELIX178, (2-oxo-3-(3-phenyl-2-(2-phenylacetamido)propanamido)butanoyl)phenylalanyl proline]
57.4 | 1130 | – | CCC(C)C(NC(=O)C(=O)C(C)(C)NC(=O)Cc1ccccc1)C(=O)NC(C)(C)C(=O)O (stereo not shown) [PHELIX139, 2-methyl-2-(3-methyl-2-(3-methyl-2-oxo-3-(2-phenylacetamido)butanamido)pentanamido)propanoic acid]
0.0922 | 0.0012 | – | CC(NC(=O)C(Cc1ccccc1)NC(=O)Cc1ccccc1)C(=O)C(=O)NC(CC1CCCCC1)C(=O)NC(C)(C)C(=O)O (stereo not shown) [PHELIX177, 12-benzyl-5-(cyclohexylmethyl)-2,2,9-trimethyl-4,7,8,11,14-pentaoxo-15-phenyl-3,6,10,13-tetraazapentadecanoic acid]
0.3 | 0.0215 | – | CC[C@H](C)[C@H](NC(=O)C(=O)C(C)NC(=O)C(Cc1ccccc1)NC(=O)Cc1ccccc1)C(=O)N1CCC[C@H]1C(=O)O (stereo partly shown) [PHELIX155, (2-oxo-3-(3-phenyl-2-(2-phenylacetamido)propanamido)butanoyl)isoleucylproline]
0.429 | 0.0485 | – | CCC(C)C(NC(=O)C(=O)C(C)NC(=O)C(Cc1ccccc1)NC(=O)Cc1cccc2ccccc12)C(=O)NC(C)(C)C(=O)O (stereo not shown) [PHELIX163, 12-benzyl-5-(sec-butyl)-2,2,9-trimethyl-15-(naphthalen-1-yl)-4,7,8,11,14-pentaoxo-3,6,10,13-tetraazapentadecanoic acid]
0.881 | 17.8 | – | CCC(C)C(NC(=O)C(=O)C(C)NC(=O)C(Cc1ccccc1)NC(=O)Cc1ccccc1)C(=O)NC(C)(C)C(=O)OC (stereo not shown) [PHELIX179, methyl 12-benzyl-5-(sec-butyl)-2,2,9-trimethyl-4,7,8,11,14-pentaoxo-15-phenyl-3,6,10,13-tetraazapentadecanoate]
0.108 | 0.0069 | – | CCC(C)C(NC(=O)C(=O)C(C)NC(=O)C(Cc1cccc(C)c1)NC(=O)Cc1ccccc1)C(=O)NC(C)(C)C(=O)O (stereo not shown) [PHELIX175, 5-(sec-butyl)-2,2,9-trimethyl-12-(3-methylbenzyl)-4,7,8,11,14-pentaoxo-15-phenyl-3,6,10,13-tetraazapentadecanoic acid]
0.00132 | – | 0.00815 | CCC(C)C(NC(=O)C(CC(C)C)NC(=O)Cc1ccccn1)C(=O)C(=O)NCC(=O)NC(Cc1ccc2ccccc2c1)C(N)=O (stereo not shown) [PHELIX324, N-(2-((1-amino-3-(naphthalen-2-yl)-1-oxopropan-2-yl)amino)-2-oxoethyl)-4-methyl-3-(4-methyl-2-(2-(pyridin-2-yl)acetamido)pentanamido)-2-oxohexanamide]
0.0371 | – | 4.3 | CCC(C)C(C(=O)C(=O)NCC(=O)NC(Cc1ccc2ccccc2c1)C(N)=O)N(C)C(=O)C(CC(C)C)NC(=O)OCc1ccccc1 (stereo not shown) [PHELIX292, benzyl (1-((1-((2-((1-amino-3-(naphthalen-2-yl)-1-oxopropan-2-yl)amino)-2-oxoethyl)amino)-4-methyl-1,2-dioxohexan-3-yl)(methyl)amino)-4-methyl-1-oxopentan-2-yl)carbamate]
69.8 | 27.8 | – | CC[C@H](C)[C@H](NC(=O)C(=O)C(C)NC(=O)Cc1ccccc1)C(=O)N1CCC[C@H]1C(=O)O (stereo partly shown) [PHELIX138, (2-oxo-3-(2-phenylacetamido)butanoyl)isoleucylproline]
0.0279 | – | 0.0234 | CCC(C)C(NC(=O)C(CC(C)C)NC(=O)OCc1ccccc1)C(=O)C(=O)NC(CCCNC(N)=O)C(N)=O (stereo not shown) [PHELIX341, benzyl (1-((1-((1-amino-1-oxo-5-ureidopentan-2-yl)amino)-4-methyl-1,2-dioxohexan-3-yl)amino)-4-methyl-1-oxopentan-2-yl)carbamate]
1080 | – | > 100 | CCC(C)C(NC(=O)C(=O)C(C)NC(=O)C(Cc1ccccc1)NC(=O)Cc1ccccc1)C(=O)NC1(C(=O)O)CCCC1 (stereo not shown) [PHELIX217, 1-(3-methyl-2-(2-oxo-3-(3-phenyl-2-(2-phenylacetamido)propanamido)butanamido)pentanamido)cyclopentane-1-carboxylic acid]
0.273 | – | 2.37 ± 1.05 | CCC(C)C(NC(=O)C(NC(=O)Cc1ccccc1)C(C)(C)C)C(=O)C(=O)NCC(=O)NC(Cc1ccc2ccccc2c1)C(N)=O (stereo not shown) [PHELIX323, N-(2-((1-amino-3-(naphthalen-2-yl)-1-oxopropan-2-yl)amino)-2-oxoethyl)-3-(3,3-dimethyl-2-(2-phenylacetamido)butanamido)-4-methyl-2-oxohexanamide]
0.0042 | – | 0.00345 | CCC(C)C(NC(=O)C(CC(C)C)NC(=O)OCc1ccccc1)C(=O)C(=O)NCC(=O)NC(Cc1ccc(C#N)cc1)C(N)=O (stereo not shown) [PHELIX350, benzyl (1-((1-((2-((1-amino-3-(4-cyanophenyl)-1-oxopropan-2-yl)amino)-2-oxoethyl)amino)-4-methyl-1,2-dioxohexan-3-yl)amino)-4-methyl-1-oxopentan-2-yl)carbamate]
0.0237 | – | 0.0415 | CCC(C)C(NC(=O)C(CC(C)C)NC(=O)OCc1ccccc1)C(=O)C(=O)NC(Cc1ccc2ccccc2c1)C(=O)NC1CC1 (stereo not shown) [PHELIX361, benzyl (1-((1-((1-(cyclopropylamino)-3-(naphthalen-2-yl)-1-oxopropan-2-yl)amino)-4-methyl-1,2-dioxohexan-3-yl)amino)-4-methyl-1-oxopentan-2-yl)carbamate]
0.00114 | – | 0.00603 | CCC(C)C(NC(=O)C(CC(C)C)NC(=O)OCc1ccccc1)C(=O)C(=O)NCC(=O)NCc1ccc2ccccc2c1 (stereo not shown) [PHELIX303, benzyl (4-methyl-1-((4-methyl-1-((2-((naphthalen-2-ylmethyl)amino)-2-oxoethyl)amino)-1,2-dioxohexan-3-yl)amino)-1-oxopentan-2-yl)carbamate]
0.00291 | – | 0.0214 | CCC(C)C(NC(=O)C(CC(C)C)NC(=O)OCc1ccccc1)C(=O)C(=O)NC(CCCNC(=N)N)C(=O)NC(Cc1ccc2ccccc2c1)C(N)=O (stereo not shown) [PHELIX330, benzyl (1-((1-((1-((1-amino-3-(naphthalen-2-yl)-1-oxopropan-2-yl)amino)-5-guanidino-1-oxopentan-2-yl)amino)-4-methyl-1,2-dioxohexan-3-yl)amino)-4-methyl-1-oxopentan-2-yl)carbamate]
0.0027 | – | 0.00727 | CC[C@H](C)C(NC(=O)[C@H](CC(C)C)NC(=O)OCc1ccccc1)C(=O)C(=O)N[C@@H](CCCNC(=N)N)C(N)=O (stereo partly shown) [PHELIX290, benzyl (1-((1-((1-amino-5-guanidino-1-oxopentan-2-yl)amino)-4-methyl-1,2-dioxohexan-3-yl)amino)-4-methyl-1-oxopentan-2-yl)carbamate]
0.00933 | – | 0.00998 | CCC(C)C(NC(=O)C(CC(C)C)NC(=O)OCc1ccccc1)C(=O)C(=O)NCC(=O)NC(Cc1cc2ccccc2[nH]1)C(N)=O (stereo not shown) [PHELIX327, benzyl (1-((1-((2-((1-amino-3-(1H-indol-2-yl)-1-oxopropan-2-yl)amino)-2-oxoethyl)amino)-4-methyl-1,2-dioxohexan-3-yl)amino)-4-methyl-1-oxopentan-2-yl)carbamate]
0.0602 | – | 0.702 | CCC(C)C(NC(=O)C(CC(C)C)NC(=O)OCc1ccccc1)C(=O)C(=O)NC(CC(N)=O)Cc1ccccc1 (stereo not shown) [PHELIX326, benzyl (1-((1-((4-amino-4-oxo-1-phenylbutan-2-yl)amino)-4-methyl-1,2-dioxohexan-3-yl)amino)-4-methyl-1-oxopentan-2-yl)carbamate]
